Assay results published in ChEMBL document CHEMBL5360601, “Discovery of Potent, Dual-Inhibitors of Diacylglycerol Kinases Alpha and Zeta Guided by Phenotypic Optimization” (ACS Med Chem Lett, 2023).
Active and inactive are the calls of the source. No cut-off for these calls is given here.

Key:
Raji [1] = test: IL2 production in PD-L1 negative human Raji cells measured after 24 hrs by Cell titer glo assay
[2] = Metabolic stability in human liver microsomes assessed as parent compound remaining; type: ADME, Microsome
[3] = Metabolic stability in mouse liver microsomes assessed as parent compound remaining; type: ADME, Microsome
Raji [4] = test: IL2 production in PD-L1 positive human Raji cells measured after 24 hrs by Cell titer glo assay
[5] = biological target: T1, Diacylglycerol kinase alpha (Homo sapiens, UniProt P23743); test: Inhibition of human DGK alpha using 1, 2-Dilauroyl-sn-glycerol as substrate by ADP-Glo assay
T1 sequence (P23743 whole entry): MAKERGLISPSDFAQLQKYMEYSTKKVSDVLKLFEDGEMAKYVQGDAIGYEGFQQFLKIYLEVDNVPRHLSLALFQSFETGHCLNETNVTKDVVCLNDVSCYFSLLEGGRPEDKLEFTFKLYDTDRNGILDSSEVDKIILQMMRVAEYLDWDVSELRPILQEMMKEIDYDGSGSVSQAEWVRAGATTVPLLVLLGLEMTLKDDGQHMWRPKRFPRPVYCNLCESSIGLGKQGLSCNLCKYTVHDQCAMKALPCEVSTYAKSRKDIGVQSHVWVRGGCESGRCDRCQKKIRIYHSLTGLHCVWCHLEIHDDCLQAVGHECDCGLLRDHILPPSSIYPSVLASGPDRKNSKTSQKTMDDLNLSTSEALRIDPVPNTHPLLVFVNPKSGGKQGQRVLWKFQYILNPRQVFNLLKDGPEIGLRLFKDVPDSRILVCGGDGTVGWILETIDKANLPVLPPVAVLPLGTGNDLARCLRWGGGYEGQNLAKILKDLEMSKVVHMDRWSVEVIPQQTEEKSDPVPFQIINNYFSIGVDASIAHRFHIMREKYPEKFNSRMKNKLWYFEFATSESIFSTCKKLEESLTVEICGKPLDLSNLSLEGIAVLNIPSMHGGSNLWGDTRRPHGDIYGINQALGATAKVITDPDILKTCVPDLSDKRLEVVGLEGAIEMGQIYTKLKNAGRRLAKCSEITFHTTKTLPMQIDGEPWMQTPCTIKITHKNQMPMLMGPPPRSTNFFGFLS

[6] = biological target: Diacylglycerol kinase iota (Homo sapiens, UniProt O75912); test: Inhibition of human DGK iota using 1, 2-Dilauroyl-sn-glycerol as substrate by ADP-Glo kinase assay
Chain of Diacylglycerol kinase iota (O75912 whole entry): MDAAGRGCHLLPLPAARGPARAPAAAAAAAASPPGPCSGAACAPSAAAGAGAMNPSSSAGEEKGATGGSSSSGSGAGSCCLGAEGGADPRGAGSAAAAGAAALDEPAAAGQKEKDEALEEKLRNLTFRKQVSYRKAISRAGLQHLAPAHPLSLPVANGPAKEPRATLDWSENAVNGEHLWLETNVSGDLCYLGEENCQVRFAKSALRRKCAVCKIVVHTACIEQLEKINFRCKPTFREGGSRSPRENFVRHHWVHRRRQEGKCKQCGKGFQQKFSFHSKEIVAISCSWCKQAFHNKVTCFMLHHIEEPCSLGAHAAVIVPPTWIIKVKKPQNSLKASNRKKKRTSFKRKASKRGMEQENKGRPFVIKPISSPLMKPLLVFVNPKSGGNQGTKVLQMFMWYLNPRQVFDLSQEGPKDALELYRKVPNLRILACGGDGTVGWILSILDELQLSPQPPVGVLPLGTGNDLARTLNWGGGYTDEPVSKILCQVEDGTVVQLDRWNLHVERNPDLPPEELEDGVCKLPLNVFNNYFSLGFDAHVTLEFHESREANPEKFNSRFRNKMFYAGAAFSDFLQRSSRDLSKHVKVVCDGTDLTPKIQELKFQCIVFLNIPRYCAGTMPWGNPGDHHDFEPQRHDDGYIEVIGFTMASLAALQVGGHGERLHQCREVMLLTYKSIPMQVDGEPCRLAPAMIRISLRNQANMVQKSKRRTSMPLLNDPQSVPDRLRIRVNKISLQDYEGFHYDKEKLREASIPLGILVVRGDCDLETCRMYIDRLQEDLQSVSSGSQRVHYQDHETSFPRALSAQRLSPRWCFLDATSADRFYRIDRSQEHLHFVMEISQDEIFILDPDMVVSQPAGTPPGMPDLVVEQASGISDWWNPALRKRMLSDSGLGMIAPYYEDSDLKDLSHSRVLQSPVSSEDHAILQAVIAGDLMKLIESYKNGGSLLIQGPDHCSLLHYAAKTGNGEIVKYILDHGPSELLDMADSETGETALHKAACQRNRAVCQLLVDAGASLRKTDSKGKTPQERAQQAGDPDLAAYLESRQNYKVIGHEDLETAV

[7] = biological target: Diacylglycerol kinase zeta (Homo sapiens, UniProt Q13574); test: Inhibition of human DGK zeta using 1, 2-Dilauroyl-sn-glycerol as substrate by ADP-Glo kinase assay
Chain of Diacylglycerol kinase zeta (Q13574 whole entry): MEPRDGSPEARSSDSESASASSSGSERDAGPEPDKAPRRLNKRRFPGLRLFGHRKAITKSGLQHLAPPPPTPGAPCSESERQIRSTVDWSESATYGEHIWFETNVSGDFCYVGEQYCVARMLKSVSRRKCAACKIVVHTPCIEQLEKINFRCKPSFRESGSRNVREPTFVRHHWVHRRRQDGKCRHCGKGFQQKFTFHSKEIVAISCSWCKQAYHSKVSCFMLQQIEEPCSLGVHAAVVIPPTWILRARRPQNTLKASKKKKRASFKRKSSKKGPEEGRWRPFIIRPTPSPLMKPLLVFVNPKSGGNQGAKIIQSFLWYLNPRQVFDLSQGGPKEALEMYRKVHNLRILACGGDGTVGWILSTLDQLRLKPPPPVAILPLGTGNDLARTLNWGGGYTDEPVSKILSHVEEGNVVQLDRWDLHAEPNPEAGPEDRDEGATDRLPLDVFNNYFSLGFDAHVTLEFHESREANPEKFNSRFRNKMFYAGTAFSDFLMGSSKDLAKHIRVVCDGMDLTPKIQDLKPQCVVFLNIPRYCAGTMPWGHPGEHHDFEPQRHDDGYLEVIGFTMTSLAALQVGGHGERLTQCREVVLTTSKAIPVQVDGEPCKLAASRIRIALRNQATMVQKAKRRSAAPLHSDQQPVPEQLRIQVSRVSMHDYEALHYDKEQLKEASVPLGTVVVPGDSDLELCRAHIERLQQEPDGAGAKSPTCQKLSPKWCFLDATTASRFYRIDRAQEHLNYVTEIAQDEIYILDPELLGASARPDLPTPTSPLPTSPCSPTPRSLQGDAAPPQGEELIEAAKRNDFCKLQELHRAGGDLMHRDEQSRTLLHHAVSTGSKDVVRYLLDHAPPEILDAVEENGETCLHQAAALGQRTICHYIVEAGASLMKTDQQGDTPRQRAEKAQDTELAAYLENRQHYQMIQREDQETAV

[8] = biological target: Diacylglycerol kinase beta (Homo sapiens, UniProt Q9Y6T7); test: Inhibition of human DGK beta using 1, 2-Dilauroyl-sn-glycerol as substrate by ADP-Glo assay
[9] = biological target: T2, Diacylglycerol kinase kappa (Homo sapiens, UniProt Q5KSL6); test: Inhibition of human DGK kappa using 1, 2-Dilauroyl-sn-glycerol as substrate by ADP-Glo kinase assay
T2 sequence (Q5KSL6 whole entry): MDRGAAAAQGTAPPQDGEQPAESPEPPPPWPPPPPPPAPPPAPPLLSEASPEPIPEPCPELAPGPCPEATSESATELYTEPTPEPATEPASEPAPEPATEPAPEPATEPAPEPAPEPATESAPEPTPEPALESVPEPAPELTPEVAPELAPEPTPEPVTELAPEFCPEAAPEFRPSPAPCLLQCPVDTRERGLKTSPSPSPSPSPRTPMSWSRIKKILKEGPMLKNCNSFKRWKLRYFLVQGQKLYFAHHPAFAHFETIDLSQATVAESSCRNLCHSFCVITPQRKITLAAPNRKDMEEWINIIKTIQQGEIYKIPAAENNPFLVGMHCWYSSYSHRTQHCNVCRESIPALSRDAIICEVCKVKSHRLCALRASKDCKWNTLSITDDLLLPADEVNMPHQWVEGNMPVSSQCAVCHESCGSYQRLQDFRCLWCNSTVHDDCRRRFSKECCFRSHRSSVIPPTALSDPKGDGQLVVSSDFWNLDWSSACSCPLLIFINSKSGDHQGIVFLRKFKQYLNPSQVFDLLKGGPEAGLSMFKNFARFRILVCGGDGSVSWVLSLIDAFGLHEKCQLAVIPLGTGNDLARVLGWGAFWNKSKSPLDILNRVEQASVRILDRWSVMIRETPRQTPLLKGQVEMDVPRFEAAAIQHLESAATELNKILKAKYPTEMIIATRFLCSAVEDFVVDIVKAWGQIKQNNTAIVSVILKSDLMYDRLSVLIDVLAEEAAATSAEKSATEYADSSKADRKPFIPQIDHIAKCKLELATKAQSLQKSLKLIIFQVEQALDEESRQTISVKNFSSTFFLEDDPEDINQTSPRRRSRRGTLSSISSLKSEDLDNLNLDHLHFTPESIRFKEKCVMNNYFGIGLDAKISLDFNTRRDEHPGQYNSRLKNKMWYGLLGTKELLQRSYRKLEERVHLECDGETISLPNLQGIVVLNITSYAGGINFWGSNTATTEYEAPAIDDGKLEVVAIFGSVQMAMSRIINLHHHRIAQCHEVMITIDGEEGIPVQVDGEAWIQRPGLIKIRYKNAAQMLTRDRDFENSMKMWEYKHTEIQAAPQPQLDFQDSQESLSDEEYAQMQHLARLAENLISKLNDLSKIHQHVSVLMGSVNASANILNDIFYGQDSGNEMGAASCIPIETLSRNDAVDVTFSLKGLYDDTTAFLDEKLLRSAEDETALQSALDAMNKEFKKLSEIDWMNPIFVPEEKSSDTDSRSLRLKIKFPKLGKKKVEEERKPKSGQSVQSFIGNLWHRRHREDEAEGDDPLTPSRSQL

[10] = Inhibition of DGK in human whole blood cell assessed as increase in pERK level incubated for 1 hr followed by anti-human CD3 stimulation and measure after 15 mins by AlphaLISA assay; type: tissue-based
[11] = Inhibition of DGK in human whole blood cell assessed as increase in IFNgamma level incubated for 1 hr followed by anti-human CD3/ antiCD28 mAB stimulation and measure after 24 hrs by AlphaLISA assay; type: tissue-based
[12] = biological target: Diacylglycerol kinase gamma (Homo sapiens, UniProt P49619); test: Inhibition of human DGK gamma using 1, 2-Dilauroyl-sn-glycerol as substrate by ADP-Glo assay
Chain of Diacylglycerol kinase gamma (P49619 whole entry): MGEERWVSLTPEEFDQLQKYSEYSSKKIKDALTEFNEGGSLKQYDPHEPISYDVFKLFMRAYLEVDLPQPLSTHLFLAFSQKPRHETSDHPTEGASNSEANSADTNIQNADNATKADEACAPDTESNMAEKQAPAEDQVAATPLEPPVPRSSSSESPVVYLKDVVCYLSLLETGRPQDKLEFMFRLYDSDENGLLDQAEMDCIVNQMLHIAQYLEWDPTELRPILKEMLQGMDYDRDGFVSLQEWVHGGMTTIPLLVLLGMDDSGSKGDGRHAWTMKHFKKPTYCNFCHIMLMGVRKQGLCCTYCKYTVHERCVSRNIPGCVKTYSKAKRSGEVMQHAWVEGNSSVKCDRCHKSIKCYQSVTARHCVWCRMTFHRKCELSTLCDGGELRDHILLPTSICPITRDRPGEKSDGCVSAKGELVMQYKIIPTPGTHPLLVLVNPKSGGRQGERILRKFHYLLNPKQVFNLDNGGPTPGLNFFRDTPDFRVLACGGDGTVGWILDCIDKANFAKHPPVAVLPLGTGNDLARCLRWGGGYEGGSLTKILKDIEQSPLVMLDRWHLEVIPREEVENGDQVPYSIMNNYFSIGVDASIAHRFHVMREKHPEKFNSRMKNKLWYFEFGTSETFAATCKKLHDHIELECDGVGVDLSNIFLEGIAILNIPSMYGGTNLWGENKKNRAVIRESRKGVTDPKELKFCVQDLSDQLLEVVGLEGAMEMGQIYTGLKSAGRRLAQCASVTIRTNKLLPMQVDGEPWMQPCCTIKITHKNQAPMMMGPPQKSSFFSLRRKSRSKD

[13] = Clearance in C57BL6 mouse at 1 mg/kg, iv administered as bolus dose measured upto 72 hrs by LC/MS/MS analysis; type: ADME, organism-based; conditions: in vivo
[14] = Half life in C57BL6 mouse at 1 mg/kg, iv administered as bolus dose measured upto 72 hrs by LC/MS/MS analysis; type: ADME, organism-based; conditions: in vivo
[15] = AUClast in C57BL6 mouse at 1 mg/kg, iv administered as bolus dose measured upto 72 hrs by LC/MS/MS analysis; type: ADME, organism-based; design: dose 1 mg/kg, time < 72 hrs, route iv; conditions: in vivo
[16] = Inhibition of DGK in mouse T cell assessed as increase in IFNgamma level incubated for 1 hr by AlphaLISA assay; type: cell-based
Mus musculus [17] = organism: Mus musculus; test: Immunostimulatory activity in OT-1 mouse model assessed as increase in activated effector T-cells measured after 24 hrs in presence of SIINFEKL antigen by flow cytometry analysis; type: functional, organism-based; conditions: dose 1-10 mg/kg
[18] = Volume of distribution at steady state in C57BL6 mouse at 1 mg/kg, iv administered as bolus dose measured upto 72 hrs by LC/MS/MS analysis; type: ADME, organism-based; conditions: in vivo, read-out: Vdss
[19] = AUClast in C57BL6 mouse at 5 mg/kg, po administered as bolus dose measured upto 72 hrs by LC/MS/MS analysis; type: ADME, organism-based; design: dose 5 mg/kg, time < 72 hrs, route po; conditions: in vivo
[20] = Cmax in C57BL6 mouse at 5 mg/kg, po administered as bolus dose measured upto 72 hrs by LC/MS/MS analysis; type: ADME, organism-based; design: dose 5 mg/kg, time < 72 hrs, route po; conditions: in vivo
[21] = Oral bioavailability in C57BL6 mouse at 5 mg/kg administered as bolus dose measured upto 72 hrs by LC/MS/MS analysis; type: ADME, organism-based; conditions: in vivo
[22] = Induction of proliferation of human CD8-positive T cell measured after 24 hrs by Cell titer glo assay
[23] = Tmax in C57BL6 mouse at 5 mg/kg, po administered as bolus dose measured upto 72 hrs by LC/MS/MS analysis; type: ADME, organism-based; conditions: in vivo
Mus musculus [24] = test: Immunostimulatory activity in OT-1 mouse model assessed as increase in activated effector T-cells at 10 mg/kg measured after 24 hrs by flow cytometry analysis; type: functional, organism-based
[25] = biological target: T1, Diacylglycerol kinase alpha; test: Inhibition of DGK alpha (unknown origin)

| Structure (SMILES) | EC50 (Raji [1]) | Stability [2] | Stability [3] | EC50 (Raji [4]) | IC50 [5] | IC50 [6] | IC50 [7] | IC50 [8] | EC50 [10] | EC50 [11] | IC50 [12] | EC50 [22] | further results |
| --- | --- | --- | --- | --- | --- | --- | --- | --- | --- | --- | --- | --- | --- |
| Cn1c(=O)c([N+](=O)[O-])c(N2CCN(C(c3ccc(F)cc3)c3ccc(F)cc3)CC2)c2ncccc21 | 310 nM | 92% | 88% | 290 nM | 53 nM | 1000 nM | 2700 nM |  |  |  |  |  |  |
| Cn1c(=O)c([N+](=O)[O-])c(N2CCN(C(c3ccccc3)c3ccccc3)CC2)c2ccccc21 | 2400 nM | 93% | 82% | 3200 nM | 15 nM | > 10000 nM | > 10000 nM | 2500 nM | > 20000 nM | > 20000 nM | 1900 nM |  | IC50 [9]: > 10000 nM |
| O=C1/C(=C/C=C/c2ccco2)SC(=S)N1NS(=O)(=O)c1ccccc1 |  |  |  |  | 600 nM |  |  |  |  |  |  |  |  |
| Cn1c(=O)c([N+](=O)[O-])c(N2CCN(C(c3ccc(F)cc3)c3ccc(F)cc3)CC2)c2nc(C#N)ccc21 | 37 nM | 90% | 99% | 37 nM | 5 nM | 3 nM | 2 nM | 1000 nM | 520 nM | 280 nM | 680 nM | 65 nM | IC50 [9]: 4600 nM; clearance [13]: 1.9 mL/min/kg; half-life [14]: 22.5 h; AUC(0-t) at 72 h [15]: 14.8 µM·h; EC50 [16]: 340 nM; Activity (Mus musculus [17]): Dose-Dependent Effect; Vd [18]: 3.9 L/kg; AUC(0-t) at 72 h [19]: 48 µM·h; Cmax [20]: 1080 nM; bioavailability [21]: 65%; Tmax [23]: 3 h; Activity (Mus musculus [24]): inactive |
| Cc1nc2sccn2c(=O)c1CCN1CCC(=C(c2ccccc2)c2ccc(F)cc2)CC1 |  |  |  |  |  |  |  |  |  |  |  |  | IC50 [25]: 25400 nM |
| COc1ccc2c(n1)c(N1CCN(C(c3ccc(F)cc3)c3ccc(F)cc3)CC1)c(C#N)c(=O)n2C | 400 nM | 100% | 43% | 390 nM |  |  |  |  |  |  |  |  |  |
| O=c1c2ccccc2[nH]c(=S)n1CCN1CCC(=C(c2ccc(F)cc2)c2ccc(F)cc2)CC1 [DIACYLGLYCEROL KINASE INHIBITOR II] |  |  |  |  | 4300 nM | > 10000 nM | > 10000 nM | > 10000 nM |  | > 10000 nM | 3400 nM | > 10000 nM |  |
| Cc1nc2sccn2c(=O)c1CCN1CCC(=C(c2ccc(F)cc2)c2ccc(F)cc2)CC1 [RITANSERIN] |  |  |  |  | > 5000 nM | > 10000 nM | > 10000 nM | > 10000 nM | > 20000 nM |  | > 10000 nM | > 10000 nM | IC50 [25]: 15100 nM |
| Cn1c(=O)c([N+](=O)[O-])c(N2CCN(C(c3ccc(F)cc3)c3ccc(F)cc3)CC2)c2cc(C#N)ccc21 | 120 nM | 97% | 93% | 130 nM | 34 nM | 6200 nM | 10000 nM |  |  |  |  |  |  |
